Data set [1] has as its system S. cerevisiae strain FY250.
Description: The plasmids encoding the LexA- and B42-fusion proteins were introduced in all necessary combinations into S. cerevisiae strain FY250 containing a plasmid encoding the lacZ reporter plasmid.
All of these experiments have been done as plate assays. The toxicity of the ligand and receptor is judged simply by seeing if either induction of the receptor fusions or application of the ligand to the plate impairs cell growth.
The subject of data set [2] is GR fusion proteins. To be noted: cited from earlier work.

Each structure is given as a SMILES string.

Take `C[C@@H]1C[C@H]2[C@@H]3CCC4=CC(=O)C=C[C@]4(C)[C@@]3(F)[C@@H](O)C[C@]2(C)[C@@]1(O)C(=O)CO` [DEX, Dexamethasone]: the “toxicity (impaired cell growth)” value in data set [1] is listed as “neither DEX nor GR are toxic”. Besides, in data set [2], the cell permeability result is reported as “cell permeable” and the “modification or breakdown in the cell” value is “not modified or broken down in the cell”.

(Values after patent US20020168685A1, “Covalent chemical inducers of protein dimerization and their uses in high throughput binding screens” (priority 2001, published 2002).)
